Data on 14 compounds can be found in PubChem BioAssay (NCI).

“And” between values parts separate entries of the source, which are not always exact repeats. Equal values may be shown once.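 Compound exposure: 48 hours, 5 concentrations, 96-well plates. The concentration for 50% growth inhibition is given as GI50. TGI denotes the concentration required for complete inhibition of growth.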 Where a SMILES comes first, the peptide text is derived from it. [ ]: non-standard residue; d: D form. The star is where a group is joined. NMeF = CN[C@@H](Cc1ccccc1)C(=O)O; NMeV = CN[C@H](C(=O)O)C(C)C; Boc = CC(C)(C)OC(=O)*; OBn = c1ccc(CO*)cc1 A value given as a limit tells only on which side of the number the result lay.

Among the test systems are SW-620 colon; MDA-MB-231 breast; EKVX NSCLC; A498 renal; CAKI-1 renal; HOP-92 NSCLC; HS 578T breast; MALME-3M melanoma; HOP-62 NSCLC; NCI-H226 lung.
What all share (assay): growth of human tumour cells (NCI), 48 h

Consider `N#CCCSC(=S)C1CCCC1=N` (configuration not stated), for which the TGI with SW-620 colon, with MDA-MB-231 breast, in the assay on EKVX NSCLC, with A498 renal, with CAKI-1 renal and in the assay with HOP-92 NSCLC was more than 100 µM each time. For the same compound, the TGI in the assay with HS 578T breast, in the assay on MALME-3M melanoma, in the assay on HOP-62 NSCLC and in the assay on NCI-H226 lung was more than 100 µM in each case.

Take `Cc1cc2cc3cc(C)c(N)cc3[n+](C)c2cc1N`: the GI50 in the assay on MDA-MB-231 breast is 1.59 µM; in the assay on EKVX NSCLC it was 1.36 µM; with A498 renal it was 2.54 µM; in the assay on CAKI-1 renal, 3.44 µM; in the assay with HOP-92 NSCLC, 1.44 µM; in the assay with HS 578T breast it was 1.12 µM. Moreover, the GI50 in the assay with MALME-3M melanoma is 2.38 µM; with HOP-62 NSCLC it was 0.518 µM; in the assay with NCI-H226 lung it was 1.17 µM. Further, the TGI with MDA-MB-231 breast was determined as 8.39 µM; with EKVX NSCLC, 14.1 µM; in the assay on A498 renal, 8.76 µM; in the assay on CAKI-1 renal, 21.6 µM; in the assay with HOP-92 NSCLC, 5.99 µM; in the assay on HS 578T breast it was 8.72 µM. The values for the TGI in the assay with MALME-3M melanoma, with HOP-62 NSCLC and in the assay with NCI-H226 lung were 6.86 µM, 4.21 µM and 4.7 µM, respectively.

With `CNC(=O)NC(CCCCNC(=O)OCc1ccccc1)C(=O)OCc1ccccc1` (configuration not stated), the TGI is more than 100 µM in the assay on SW-620 colon; more than 73.9 µM with MDA-MB-231 breast; more than 100 µM with EKVX NSCLC; 71.4 µM in the assay with A498 renal; more than 80.2 µM with CAKI-1 renal; 45.3 µM in the assay on HOP-92 NSCLC. Moreover, the TGI was more than 100 µM in the assay with HS 578T breast, 64.9 µM with MALME-3M melanoma, more than 100 µM in the assay on HOP-62 NSCLC and more than 88.6 µM in the assay with NCI-H226 lung.

For `CCCCCCCCCCCCCCCCCC(=O)OCC(COC1OC(CS(=O)(=O)O)C(O)C(O)C1O)OC(=O)CCCCCCCCCCCCCCCCC` (configuration not stated), the TGI in the assay on SW-620 colon, in the assay on MDA-MB-231 breast, with EKVX NSCLC, with A498 renal, with CAKI-1 renal and in the assay on HOP-92 NSCLC was more than 100 µM in each case. The TGI in the assay with HS 578T breast, in the assay with MALME-3M melanoma, in the assay on HOP-62 NSCLC and in the assay with NCI-H226 lung was more than 100 µM throughout.

For the compound `CSc1nc(C)c(Br)c(=O)n1C1OC(COC(C)=O)C(OC(C)=O)C(OC(C)=O)C1OC(C)=O` (configuration not stated), the TGI with SW-620 colon is more than 100 µM; with MDA-MB-231 breast, more than 100 µM; in the assay on EKVX NSCLC, more than 100 µM; with A498 renal, more than 100 µM; in the assay with CAKI-1 renal, > 100 µM and 83.9 µM; in the assay on HOP-92 NSCLC, 54.8 µM and 58.1 µM. Further, the TGI in the assay on HS 578T breast is more than 100 µM; in the assay on MALME-3M melanoma, > 100 µM and 70.4 µM; in the assay on HOP-62 NSCLC it was 72.3 µM and 43.9 µM; with NCI-H226 lung, more than 100 µM. Also, the GI50 in the assay on EKVX NSCLC is > 100 µM and 42.9 µM; in the assay on A498 renal, 29.4 µM and 75.4 µM; in the assay on CAKI-1 renal it was > 100 µM and 33.9 µM; with MALME-3M melanoma it was > 100 µM and 33.4 µM; in the assay on NCI-H226 lung, > 100 µM and 36 µM.

As to `COc1nc(N)nc2c1ncn2[C@@H]1O[C@H](CO)[C@@H](O)[C@@H]1O`, the GI50 in the assay on SW-620 colon, in the assay on MDA-MB-231 breast, with EKVX NSCLC, in the assay with A498 renal, with CAKI-1 renal and in the assay with HOP-92 NSCLC was more than 100 µM each time. The GI50 in the assay on HS 578T breast, in the assay on MALME-3M melanoma, in the assay on HOP-62 NSCLC and with NCI-H226 lung was more than 100 µM throughout. The TGI in the assay with SW-620 colon, in the assay on MDA-MB-231 breast, in the assay with EKVX NSCLC, in the assay with A498 renal, in the assay on CAKI-1 renal and in the assay on HOP-92 NSCLC was more than 100 µM each time. The TGI in the assay on HS 578T breast, in the assay on MALME-3M melanoma, with HOP-62 NSCLC and with NCI-H226 lung was more than 100 µM in each case.

With `CCOC(=O)c1c(Cl)c2c(n1Cc1cccc(OC)c1)-c1oncc1CC2`, the GI50 is 0.773 µM in the assay on SW-620 colon; 4.61 µM with MDA-MB-231 breast; 3.05 µM in the assay with EKVX NSCLC; 0.382 µM in the assay on A498 renal; 1.85 µM in the assay on CAKI-1 renal; 9.24 µM in the assay on HOP-92 NSCLC. In addition, the GI50 in the assay with HS 578T breast is 1.21 µM; in the assay with MALME-3M melanoma, 0.646 µM; with HOP-62 NSCLC, 2.89 µM; in the assay with NCI-H226 lung, 6.82 µM. For the same compound, the TGI with SW-620 colon was more than 100 µM; with MDA-MB-231 breast, more than 100 µM; with EKVX NSCLC, more than 100 µM; in the assay with A498 renal, 5.69 µM; in the assay on CAKI-1 renal, more than 100 µM; in the assay with HOP-92 NSCLC, more than 100 µM. Besides, the TGI in the assay with HS 578T breast was 9.45 µM; in the assay on MALME-3M melanoma it was 96.2 µM; in the assay with HOP-62 NSCLC, more than 100 µM; in the assay with NCI-H226 lung, more than 100 µM.

Turning to `CC(C)[C@@H](C(=O)N1CCC[C@H]1C(=O)OCc1ccccc1)N(C)C(=O)[C@H](C(C)C)N(C)C(=O)[C@H](Cc1ccccc1)N(C)C(=O)[C@H](NC(=O)OC(C)(C)C)C(C)C` (Boc-[dV][NMeF][NMeV][NMeV]P-OBn), the GI50 in the assay on SW-620 colon was 12.5 µM; in the assay with CAKI-1 renal, more than 100 µM; in the assay with HOP-92 NSCLC, 20.9 µM. For the same compound, the TGI in the assay on SW-620 colon is > 50 µM and 26.7 µM; in the assay on MDA-MB-231 breast it was more than 50 µM; in the assay with EKVX NSCLC it was more than 100 µM; in the assay with A498 renal it was more than 100 µM; in the assay on CAKI-1 renal, more than 100 µM; in the assay with HOP-92 NSCLC it was more than 100 µM. Further, the TGI was more than 50 µM with HS 578T breast, more than 100 µM in the assay on MALME-3M melanoma, more than 100 µM in the assay with HOP-62 NSCLC and more than 100 µM in the assay on NCI-H226 lung.

As for `Cc1[nH]nc2ccc3nc(-c4ccc5[nH]ncc5c4)c4c(c3c12)CCCC4`, the GI50 in the assay with SW-620 colon is 0.494 µM; with MDA-MB-231 breast it was 1.71 µM; with EKVX NSCLC, 2.95 µM; in the assay with A498 renal, 0.28 µM; in the assay with CAKI-1 renal, 0.535 µM; in the assay on HOP-92 NSCLC, 1.91 µM. Further, the GI50 in the assay on HS 578T breast is 1.34 µM; in the assay on MALME-3M melanoma, 1.33 µM; in the assay with HOP-62 NSCLC it was 1.41 µM; with NCI-H226 lung it was 1.89 µM. Further, the TGI with SW-620 colon stood at 8.79 µM; with MDA-MB-231 breast, 12.7 µM; in the assay with EKVX NSCLC, 25.7 µM; with A498 renal, 1.8 µM; in the assay on CAKI-1 renal, 12 µM; with HOP-92 NSCLC it was 6 µM. The TGI with HS 578T breast is 12.5 µM; with MALME-3M melanoma it was 6.32 µM; in the assay on HOP-62 NSCLC, 15.1 µM; with NCI-H226 lung, 10.8 µM.

As to `Cc1cc(=O)oc2c(OS(C)(=O)=O)c(OS(C)(=O)=O)ccc12`, the TGI in the assay with SW-620 colon, in the assay on MDA-MB-231 breast, in the assay on EKVX NSCLC, with A498 renal, with CAKI-1 renal and in the assay on HOP-92 NSCLC was more than 100 µM in each case. The TGI in the assay with HS 578T breast, in the assay with MALME-3M melanoma, in the assay with HOP-62 NSCLC and with NCI-H226 lung was more than 100 µM each time.

Turning to `N#Cc1c(N)nc(NCc2ccccc2)c(C#N)c1-c1ccccc1Cl`, the GI50 is 18.9 µM in the assay with SW-620 colon; 5.76 µM in the assay on MDA-MB-231 breast; 24.4 µM in the assay on EKVX NSCLC; 19.2 µM in the assay on A498 renal; 14.6 µM in the assay on CAKI-1 renal; 3.57 µM in the assay with HOP-92 NSCLC. The GI50 in the assay with HS 578T breast was 11.3 µM; in the assay with MALME-3M melanoma, 21 µM; with HOP-62 NSCLC, 4.47 µM; in the assay on NCI-H226 lung, 2.39 µM. In addition, the TGI was more than 100 µM with SW-620 colon; 33.8 µM in the assay on MDA-MB-231 breast; 85.3 µM in the assay with EKVX NSCLC; 46.9 µM in the assay with A498 renal; more than 100 µM in the assay on CAKI-1 renal; 25.5 µM with HOP-92 NSCLC. Besides, the TGI in the assay on HS 578T breast worked out at 43 µM; in the assay on MALME-3M melanoma, 90.2 µM; in the assay on HOP-62 NSCLC, 18 µM; with NCI-H226 lung it was 14.5 µM.

Take `COc1ccc2cc(Cn3cc[n+](Cc4ccc5ccccc5c4)c3)ccc2c1`: the GI50 in the assay on SW-620 colon is 3.12 µM; with MDA-MB-231 breast it was 1.55 µM; in the assay with EKVX NSCLC, 3.71 µM; with A498 renal it was 1.03 µM; in the assay with HOP-92 NSCLC it was 0.672 µM; with HS 578T breast it was 2.32 µM. Further, the GI50 with MALME-3M melanoma is 1.53 µM; with HOP-62 NSCLC, 4.23 µM; in the assay on NCI-H226 lung it was 2.97 µM. Besides, the TGI in the assay on SW-620 colon was 14.1 µM; with MDA-MB-231 breast, 3.81 µM; in the assay on EKVX NSCLC it was 15.5 µM; in the assay with A498 renal, 9.13 µM; in the assay with HOP-92 NSCLC, 3.33 µM; with HS 578T breast, 9.92 µM. Also, the TGI with MALME-3M melanoma came to 4.03 µM; in the assay with HOP-62 NSCLC, 20.9 µM; in the assay with NCI-H226 lung it was 16.4 µM.

As to `CC(C(=O)O)/C(=C\c1ccc2c(c1)OCO2)C(=O)O` (configuration not stated), the TGI with SW-620 colon, in the assay on MDA-MB-231 breast, with EKVX NSCLC, with A498 renal, with CAKI-1 renal and in the assay with HOP-92 NSCLC was more than 100 µM in each case. Also, the TGI with HS 578T breast, in the assay with MALME-3M melanoma, in the assay on HOP-62 NSCLC and in the assay with NCI-H226 lung was more than 100 µM each time.

Turning to `CCn1c(-c2nonc2N)nc2cncc(C(=O)NCCNC)c21`, the GI50 in the assay on SW-620 colon is 4.07 µM; with MDA-MB-231 breast it was more than 25 µM; with EKVX NSCLC, 0.903 µM; with A498 renal, 0.834 µM; with CAKI-1 renal, 1.56 µM; in the assay on HS 578T breast it was 0.36 µM. Besides, the results for the GI50 in the assay with MALME-3M melanoma, in the assay with HOP-62 NSCLC and in the assay with NCI-H226 lung were 5.7 µM, 3.11 µM and 0.454 µM, respectively. Also, the TGI in the assay with SW-620 colon is more than 25 µM; in the assay with MDA-MB-231 breast, more than 25 µM; in the assay on EKVX NSCLC, more than 25 µM; in the assay on A498 renal it was more than 19.8 µM; in the assay on CAKI-1 renal it was 14.4 µM; in the assay with HS 578T breast, more than 6.59 µM. In addition, the TGI in the assay with MALME-3M melanoma, with HOP-62 NSCLC and with NCI-H226 lung was more than 25 µM each time.
